Broadly, the IC50 is the concentration that gives 50% inhibition. Read a low IC50 as inhibition by little substance. The term GI50 denotes the concentration that inhibits growth by half. High values mean less potent growth inhibition, low ones more potent growth inhibition.

The text below walks through data of publication PMC4897788, “Design, biological evaluation and 3D QSAR studies of novel dioxin-containing pyrazoline derivatives with thiourea skeleton as selective HER-2 inhibitors” (Scientific Reports, 2016).

Series [1] concerns the target EGFR (Homo sapiens, UniProt P00533). Briefly: EGFR autophosphorylation kinase assay (DELFIA/time-resolved fluorometry).
Description: (§2) Both EGFR and HER-2 kinase assays were set up to assess the level of autophosphorylation based on DELFIA/Time-Resolved Fluorometry. […] Then, 10 μL of 5× buffer (containing 20 mM HEPES, 2 mM MnCl2, 100 μM Na3VO4, and 1 mM DTT) and 20 μL of 0.1 mM ATP-50 mM MgCl2 was added for 1 h. Positive and negative controls were included in each plate by incubation of enzyme with or without ATP-MgCl2. At the end of incubation, liquid was aspirated and plates were washed three times with wash buffer. A 75 μL (400 ng) sample of europium-labeled anti-phosphotyrosine antibody was added to each well for another 1 h of incubation. […] The IC50 was obtained from curves of percentage inhibition with eight concentrations of compound. As the contaminants in the enzyme preparation are fairly low, the majority of the signal detected by the anti-phosphotyrosine antibody is from EGFR or HER-2. The experiment was performed for three independent times and in triplicate each time.
Series [2] relates to MDA-MB-453 human breast cancer cell line. Briefly: Anti-proliferation assay (MTT), MDA-MB-453. The conditions noted are these: 24 h. The series is classed as cell-based. As for the experimental part: (§1) MCF-7 human breast cancer cells was cultured in DMEM/10% fetal bovine serum, in 5% CO2 water saturated atmosphere at 37 °C. MDA-MB-453 human breast cancer cells was cultured in L-15 medium in 100% air at 37 °C. Cell suspensions (10000/mL) were prepared and 100 μL/well dispensed into 96-well plates (Costar) giving 1000 cells/well. The plates were returned to the incubator for 24 h to allow the cells to reattach. These compounds were initially prepared at 20 mM in DMSO. Aliquots (200 μL) were diluted into 20 mL culture medium giving 200 μM, and 10 serial dilutions of 3× prepared. Aliquots (100 μL) of each dilution were added to the wells, giving doses ranging from 100 μM to 0.005 μM. After a further incubated at 37 °C for 24 h in a humidified atmosphere with 5% CO2, the cell viability was assessed by the conventional 3-(4,5-dimethylthiazol-2-yl)-2,5-diphenyltetrazolium bromide (MTT) reduction assay and carried out strictly according to the manufacturer instructions (Sigma). The absorbance at 590 nm was recorded using LX300 Epson Diagnostic micro-plate reader. Then GI50 was calculated using SPSS 13.0 software.

Series [3] concerns the target T1, VEGFR-2 (Homo sapiens, UniProt P35968).
T1 construct: either the phosphorylated or nonphosphorylated form of the VEGFR-2 kinase domain
The experiment in a line: VEGFR-2 inhibitory assay. The series is classed as biochemical. On the procedure:
In a 96-well plate, 5 nM/L of either the phosphorylated or nonphosphorylated form of the VEGFR-2 kinase domain was incubated with selected compounds (10-point titration ranging from 4 μM to 0.1 μM), 1 μM/L gastrin substrate, 20 mM/L Tris-HCl, pH 7.5, 10 mM/L MgCl2, 100 mM/L NaCl, 1.5 mM/L EGTA, 1 mM/L DTT, 0.2 mM/L sodium orthovanadate, and 20 μg/mL BSA for 30 min at 25 °C. ATP was added at a final concentration of 11.8 μM and incubated for 60 min at room temperature. Eu-labeled antiphosphotyrosine pT66 antibody (Perkin- Elmer) was then used for detection. The fluorescence at 665 nM was measured with a Wallac Victor plate reader using a time delay of 50 μs. The experiment was performed for three independent times and in triplicate each time.

For series [4], the target named is T2, HER-3 (Homo sapiens, UniProt P21860).
T2 construct: HER-3 cytoplasmic domain (HER-3-CD, amino acids 665–1339); His6 (N); made in house
T2 sequence (P21860 665-1339): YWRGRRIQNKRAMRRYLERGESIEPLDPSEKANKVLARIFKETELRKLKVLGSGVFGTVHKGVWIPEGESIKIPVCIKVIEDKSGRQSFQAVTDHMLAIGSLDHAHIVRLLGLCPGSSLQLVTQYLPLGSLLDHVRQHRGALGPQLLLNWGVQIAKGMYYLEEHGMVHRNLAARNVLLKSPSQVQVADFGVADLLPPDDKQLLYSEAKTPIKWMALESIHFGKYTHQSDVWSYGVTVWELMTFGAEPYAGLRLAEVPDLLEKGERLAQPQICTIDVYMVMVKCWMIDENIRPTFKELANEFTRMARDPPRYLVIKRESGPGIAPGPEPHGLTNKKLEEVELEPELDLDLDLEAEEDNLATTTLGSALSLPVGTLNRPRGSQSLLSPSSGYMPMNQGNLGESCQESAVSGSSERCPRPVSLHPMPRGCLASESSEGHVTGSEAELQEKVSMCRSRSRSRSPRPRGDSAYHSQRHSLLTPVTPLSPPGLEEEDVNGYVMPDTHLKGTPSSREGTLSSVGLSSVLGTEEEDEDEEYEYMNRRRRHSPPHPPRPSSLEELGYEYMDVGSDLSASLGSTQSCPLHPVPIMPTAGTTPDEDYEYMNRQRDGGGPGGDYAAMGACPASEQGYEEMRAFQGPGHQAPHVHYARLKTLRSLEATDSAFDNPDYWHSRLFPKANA
Briefly: HER-3 inhibitory assay. The series is classed as biochemical. On the procedure: A sequence that encodes (His)6 was located at the 5′ upstream to the HER-2 and EGFR sequences. Sf-9 cells were infected for 3 days for protein expression. Sf-9 cell pellets were solubilized at 0 °C in a buffer at pH 7.4 containing 50 mM HEPES, 10 mM NaCl, 1% Triton, 10 μM ammonium molybdate, 100 μM sodium vanadate, 10 μg/mL aprotinin, 10 μg/mL leupeptin, 10 μg/mL pepstatin, and 16 μg/mL benzamidine, HCl for 20 min followed by 20 min centrifugation. Crude extract supernatant was passed through an equilibrated Ni–NTA superflow packed column and washed with 10 mM and then 100 mM imidazole to remove nonspecifically bound material. Histidine-tagged proteins were eluted with 250 and 500 mM imidazole and dialyzed against 50 mM NaCl, 20 mM HEPES, 10% glycerol and 1 μg/mL each of aprotinin, leupeptin, and pepstatin for 2 h. The entire purification procedure was performed at 4 °C or on ice.
A 1.8 Kb cDNA encoded for human HER-3 cytoplasmic domain (HER-3-CD, amino acids 665–1339) was applied to perform the experiment using the same method as EGFR/HER-2.

The target of series [5] is HER-2 (Homo sapiens, UniProt P04626). The experiment in a line: HER-2 autophosphorylation kinase assay (DELFIA/time-resolved fluorometry). As to conditions: for SI EGFR/HER-2: selectivity index, IC50 EGFR/IC50 HER-2.
Sequence of HER-2 (P04626 676-1245): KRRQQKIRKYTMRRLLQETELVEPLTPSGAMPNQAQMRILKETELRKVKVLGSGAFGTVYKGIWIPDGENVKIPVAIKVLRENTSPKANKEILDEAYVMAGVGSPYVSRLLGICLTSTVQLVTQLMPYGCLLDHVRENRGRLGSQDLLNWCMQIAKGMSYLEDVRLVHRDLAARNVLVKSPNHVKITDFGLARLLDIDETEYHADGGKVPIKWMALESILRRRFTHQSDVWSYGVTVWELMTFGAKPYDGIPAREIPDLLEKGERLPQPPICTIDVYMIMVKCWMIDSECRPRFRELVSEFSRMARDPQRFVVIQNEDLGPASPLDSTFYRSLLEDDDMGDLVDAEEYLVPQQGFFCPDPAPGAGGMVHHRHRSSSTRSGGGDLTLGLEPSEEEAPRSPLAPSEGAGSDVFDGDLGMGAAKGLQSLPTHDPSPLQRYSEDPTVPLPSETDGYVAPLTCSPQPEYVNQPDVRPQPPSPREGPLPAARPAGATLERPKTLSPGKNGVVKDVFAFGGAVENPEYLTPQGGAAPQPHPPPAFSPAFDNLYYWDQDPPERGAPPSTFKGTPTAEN
Description: as §2
Series [6] concerns human erythrocytes. The experiment in a line: Hemolysis test. The conditions noted are these: lytic concentration 30%. It counts as cell-based. As for the experimental part: Hemolytic activity was assayed using fresh capillary human blood. Erythrocytes were collected by centrifuging the blood three times in chilled phosphate buffered saline (PBS at 4 °C) at 1000 × g for 10 min. The final pellet was resuspended in PBS to give a 2% w/v solution. Using a microtitre plate, 100 μL of the erythrocyte solution was added to dextran, PLL, stearyl-PLL or stearyl-PLL+ LDL (1–1000/μg/mL) in a volume of […]. Samples were then incubated for 3 h and the microtitre plate was centrifuged then at 1000 × g for 10 min and the supernatants (100 μL) transferred into a new microtitre plate. Hemoglobin release was determined spectrophotometrically using a microtitre plate reader (absorbance at 550 nm). Results were expressed as the amount of released hemoglobin induced by the compounds as a percentage of the total. Hemolysis test was tested according to the guide of biological evaluation of medical device (SFDA, China).

For series [7], the system named is MCF-7 human breast cancer cell line. Briefly: Anti-proliferation assay (MTT), MCF-7. The series is classed as cell-based. As to conditions: MCF7, 24 h. As for the experimental part:
as §1

A short description of series [8]: Cytotoxicity test (MTT), NIH-3T3. It counts as cell-based. The conditions noted are these: mouse, NIH-3T3 mouse embryonic fibroblast cells, NIH3T3. As for the experimental part:
The cytotoxic activity in vitro was measured against mouse fibroblast NIH-3T3 cell using the MTT assay. Cells were cultured in a 96-well plate at a density of 5 × 10^5 cells and different concentrations of compounds were respectively added to each well. The incubation was permitted at 37 °C, 5% CO2 atmosphere for 24 h before the cytotoxicity assessments. 20 μL MTT reagent (4 mg/mL) was added per well 4 h before the end of the incubation. Four hours later, the plate was centrifuged at 1200 rcf for 5 min and the supernatants were removed, each well was added with 200 μL DMSO. The absorbance was measured at a wavelength of 490 nm (OD 490 nm) on an ELISA microplate reader. Three replicate wells were used for each concentration and each assay was measured three times, after which the average of IC50 was calculated. The cytotoxicity of each compound was expressed as the concentration of compound that reduced cell viability to 50% (IC50).

The target in series [9] is T3, FAK (Homo sapiens, UniProt Q05397).
T3 construct: human-recombinant full-length FAK
T3 sequence (Q05397 whole entry): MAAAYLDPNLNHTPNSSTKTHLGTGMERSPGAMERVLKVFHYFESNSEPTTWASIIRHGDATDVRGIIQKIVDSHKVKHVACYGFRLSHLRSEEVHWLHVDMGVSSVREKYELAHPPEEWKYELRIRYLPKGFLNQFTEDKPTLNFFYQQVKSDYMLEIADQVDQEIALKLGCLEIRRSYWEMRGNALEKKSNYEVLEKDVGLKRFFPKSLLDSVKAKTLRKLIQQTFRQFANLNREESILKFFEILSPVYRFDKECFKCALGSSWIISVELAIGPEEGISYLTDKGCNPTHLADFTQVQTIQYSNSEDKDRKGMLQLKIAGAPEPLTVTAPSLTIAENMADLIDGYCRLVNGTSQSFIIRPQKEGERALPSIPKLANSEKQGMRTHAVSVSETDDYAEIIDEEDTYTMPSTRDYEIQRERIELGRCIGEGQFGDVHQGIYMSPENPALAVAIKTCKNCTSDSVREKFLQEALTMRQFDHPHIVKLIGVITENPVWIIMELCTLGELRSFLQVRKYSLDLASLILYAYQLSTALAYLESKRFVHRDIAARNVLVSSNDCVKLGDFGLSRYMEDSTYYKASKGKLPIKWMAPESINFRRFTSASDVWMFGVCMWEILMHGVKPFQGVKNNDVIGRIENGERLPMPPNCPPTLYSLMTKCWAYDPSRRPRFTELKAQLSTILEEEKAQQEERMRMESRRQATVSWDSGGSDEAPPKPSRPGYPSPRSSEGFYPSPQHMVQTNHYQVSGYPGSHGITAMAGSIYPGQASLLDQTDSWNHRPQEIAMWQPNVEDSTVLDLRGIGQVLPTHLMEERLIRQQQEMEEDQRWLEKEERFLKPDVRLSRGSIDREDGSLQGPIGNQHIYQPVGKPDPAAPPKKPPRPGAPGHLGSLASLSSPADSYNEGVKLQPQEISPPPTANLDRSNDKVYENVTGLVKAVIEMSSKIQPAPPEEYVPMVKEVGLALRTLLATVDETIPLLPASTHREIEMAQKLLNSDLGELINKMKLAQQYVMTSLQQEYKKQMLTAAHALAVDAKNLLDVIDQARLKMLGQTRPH
Briefly: FAK inhibitory assay (Kinase-Glo). The series is classed as biochemical. As for the experimental part: Selected compounds were tested against FAK. In a typical study, human-recombinant full-length FAK was incubated in kinase buffer containing ATP and the substrate for 4 h at room temperature with or without the presence of the corresponding coumpounds. The final concentration of drug as 100, 30, 10, 3 μg/mL. The remaining ATP in solution was then quantified utilizing the Kinase-Glo-luminescence kit (Promega).
(In general: Kinase-Glo reads ATP consumption through a luciferase reaction.)

Sequence of EGFR (P00533 669-1210): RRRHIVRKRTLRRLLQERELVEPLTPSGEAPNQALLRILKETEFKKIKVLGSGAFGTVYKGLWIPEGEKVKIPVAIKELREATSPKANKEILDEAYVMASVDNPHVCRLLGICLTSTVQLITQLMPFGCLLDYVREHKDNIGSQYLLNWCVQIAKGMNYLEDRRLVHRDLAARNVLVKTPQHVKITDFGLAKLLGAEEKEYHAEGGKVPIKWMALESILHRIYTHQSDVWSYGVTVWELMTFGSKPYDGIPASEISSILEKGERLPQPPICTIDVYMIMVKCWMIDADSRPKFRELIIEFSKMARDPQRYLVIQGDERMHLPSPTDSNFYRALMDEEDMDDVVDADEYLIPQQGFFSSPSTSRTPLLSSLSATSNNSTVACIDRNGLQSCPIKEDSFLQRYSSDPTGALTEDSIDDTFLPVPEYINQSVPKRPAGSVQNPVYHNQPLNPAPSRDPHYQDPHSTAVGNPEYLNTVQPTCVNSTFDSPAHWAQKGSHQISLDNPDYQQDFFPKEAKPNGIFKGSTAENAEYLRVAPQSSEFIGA
T1 sequence (P35968 834-1162 limits assumed, species assumed): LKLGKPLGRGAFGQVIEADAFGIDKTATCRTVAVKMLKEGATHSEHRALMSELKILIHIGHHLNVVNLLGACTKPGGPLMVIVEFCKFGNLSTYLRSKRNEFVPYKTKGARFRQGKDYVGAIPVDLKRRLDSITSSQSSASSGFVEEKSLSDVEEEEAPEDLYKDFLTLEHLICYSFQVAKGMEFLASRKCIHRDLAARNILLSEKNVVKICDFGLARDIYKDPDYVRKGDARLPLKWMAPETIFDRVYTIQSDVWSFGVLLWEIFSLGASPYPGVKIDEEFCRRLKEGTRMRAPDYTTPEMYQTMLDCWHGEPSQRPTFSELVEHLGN

Regarding `Cc1ccc(C2CC(c3ccc4c(c3)OCCO4)=NN2C(N)=S)cc1` (centres unmarked) [Compound C9, 3-(2,3-dihydrobenzo[b][1,4]dioxin-6-yl)-5-(p-tolyl)-4,5-dihydro-1H-pyrazole-1-carbothioamide], the IC50 in series [1] turned out to be 65.2 ± 5.88 µM; in series [3], 11.5 ± 1.07 µM; in series [4], 6.32 ± 0.58 µM; in series [5], 370 ± 30 nM; in [9] it was 36.1 ± 3.21 µM. The concentration for 50% growth inhibition (GI50) worked out at 1380 ± 120 nM in series [2] and 56.2 ± 5.41 µM in series [7]. Besides, in series [5], the “SI EGFR/HER-2” value is 176.1. Further, the “Hemolysis LC30” value in series [6] is reported as over 10 mg/mL. In series [8], the 50% growth inhibitory concentration (GI50) at 24 h turned out to be 199.1 ± 1.6 µM.

In the case of `COc1ccc(C2CC(c3ccc4c(c3)OCCO4)=NN2C(N)=S)cc1` (centres unmarked) [Compound C10, 3-(2,3-dihydrobenzo[b][1,4]dioxin-6-yl)-5-(4-methoxyphenyl)-4,5-dihydro-1H-pyrazole-1-carbothioamide], the IC50 in series [1] worked out at 37.9 ± 3.75 µM; in [3], 6.91 ± 0.64 µM; in series [4], 10.7 ± 0.96 µM; in series [5], 80 ± 6 nM; in [9] it was 64 ± 5.95 µM. Moreover, the GI50 in series [2] stood at 250 ± 20 nM; in series [7] it was 18.2 ± 1.71 µM. In series [5], the “SI EGFR/HER-2” value turned out to be 474.4. Further, in [6], the “Hemolysis LC30” value is listed as over 10 mg/mL. This compound showed a GI50 at 24 h in series [8] of 204 ± 3.05 µM.

For the compound `NC(=S)N1N=C(c2ccc3c(c2)OCCO3)CC1c1ccc(Br)cc1` (centres unmarked) [Compound C13, 5-(4-bromophenyl)-3-(2,3-dihydrobenzo[b][1,4]dioxin-6-yl)-4,5-dihydro-1H-pyrazole-1-carbothioamide], the half-inhibitory concentration (IC50) turned out to be 82 ± 7.84 µM in series [1]; 25.8 ± 2.41 µM in series [3]; 2.46 ± 0.23 µM in [4]; 800 ± 70 nM in series [5]; 36.5 ± 3.42 µM in [9]. For the same compound, the results for the concentration for 50% growth inhibition (GI50) in series [2] and in [7] were 3240 ± 300 nM and 123 ± 11.2 µM, respectively. For the same compound, the “SI EGFR/HER-2” value in series [5] amounted to 102.5. For the same compound, the “Hemolysis LC30” value in series [6] was over 10 mg/mL. The compound also had a GI50 at 24 h in series [8] of 148 ± 2.02 µM.

With `CSc1ccc(C2CC(c3ccc4c(c3)OCCO4)=NN2C(N)=S)cc1` (centres unmarked) [Compound C15, 3-(2,3-dihydrobenzo[b][1,4]dioxin-6-yl)-5-(4-(methylthio)phenyl)-4,5-dihydro-1H-pyrazole-1-carbothioamide], the IC50 in series [1] was 27.5 ± 2.46 µM; in [3] it was 8.75 ± 0.77 µM; in series [4], 17.9 ± 1.48 µM; in series [5], 290 ± 20 nM; in series [9], 40.3 ± 3.88 µM. Moreover, the GI50 in series [2] turned out to be 950 ± 80 nM; in series [7] it was 12.1 ± 1.17 µM. In addition, in series [5], the “SI EGFR/HER-2” value amounted to 94.8. The “Hemolysis LC30” value in series [6] is recorded as over 10 mg/mL. It took 154 ± 1.75 µM to inhibit growth in series [8] by half (GI50 at 24 h).

Turning to `NC(=S)N1N=C(c2ccc3c(c2)OCCO3)CC1c1ccc(C(F)(F)F)cc1` (centres unmarked) [Compound C17, 3-(2,3-dihydrobenzo[b][1,4]dioxin-6-yl)-5-(4-(trifluoromethyl)phenyl)-4,5-dihydro-1H-pyrazole-1-carbothioamide], the IC50 came out at 79.7 ± 7.01 µM in series [1]; 5.16 ± 0.5 µM in series [3]; 8.45 ± 0.78 µM in series [4]; 210 ± 20 nM in series [5]; 30.1 ± 2.76 µM in series [9]. For the same compound, the GI50 in series [2] worked out at 550 ± 20 nM; in series [7], 96.4 ± 9.22 µM. Besides, the “SI EGFR/HER-2” value in series [5] was determined as 379.6. For the same compound, the “Hemolysis LC30” value in [6] is over 10 mg/mL. For the same compound, it took 185 ± 3.15 µM to inhibit growth in [8] by half (GI50 at 24 h).
